From patent US6689806B1, “Indolinone compounds as kinase inhibitors” (Sugen, Inc., priority 1999, dated 2004)

What was measured:
SKOV3 = SKOV3 growth; assay type: cell-based; conditions: Homo sapiens, SK-OV-3; Table 7; SKOV3 cells
Her2 [1] = target: T1, Her2 (Homo sapiens, UniProt P04626); experiment: HER-2 ELISA: EGF receptor-HER2 chimeric receptor assay in whole cells (HER2 kinase); assay type: cell-based; conditions: Table 7; NIH3T3 cells with EGFR/HER2 chimeric receptor, phosphotyrosine ELISA
T1 construct: fused on or other part: P00533 (Epidermal growth factor receptor)
T1 sequence (P04626 676-1255 limits assumed): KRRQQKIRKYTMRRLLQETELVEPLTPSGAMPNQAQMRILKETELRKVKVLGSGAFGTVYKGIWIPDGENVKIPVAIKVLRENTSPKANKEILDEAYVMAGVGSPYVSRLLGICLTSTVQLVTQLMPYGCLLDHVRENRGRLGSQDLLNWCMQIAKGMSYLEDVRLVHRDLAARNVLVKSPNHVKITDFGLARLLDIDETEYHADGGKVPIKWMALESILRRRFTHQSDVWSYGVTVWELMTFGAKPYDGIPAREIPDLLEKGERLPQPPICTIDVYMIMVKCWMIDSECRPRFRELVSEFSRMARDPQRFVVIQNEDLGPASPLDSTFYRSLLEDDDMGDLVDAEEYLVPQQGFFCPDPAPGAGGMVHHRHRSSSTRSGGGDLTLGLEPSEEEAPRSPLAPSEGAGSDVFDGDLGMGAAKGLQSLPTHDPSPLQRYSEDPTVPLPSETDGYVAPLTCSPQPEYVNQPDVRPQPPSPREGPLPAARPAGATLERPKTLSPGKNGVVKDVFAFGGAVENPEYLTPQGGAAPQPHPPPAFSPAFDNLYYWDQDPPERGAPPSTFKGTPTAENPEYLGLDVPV
Description: Assay 1: EGF Receptor-HER2 Chimeric Receptor Assay In Whole Cells.
HER2 kinase activity in whole EGFR-NIH3T3 cells was measured as described below:
1. An NIH3T3 cell line overexpressing a chimeric receptor containing the EGFR extracellular domain and intracellular HER2 kinase domain can be used for this assay.
3. Resuspend cells in seeding medium (DMEM, 0.5% bovine serum), and count the cells using trypan blue. Viability above 90% is acceptable. Seed cells in DMEM medium (0.5% bovine serum) at a density of 10,000 cells per well, 100 μL per well, in a 96 well microtiter plate. Incubate seeded cells in 5% CO2 at 37° C. for about 40 hours.
1. Check seeded cells for contamination using an inverted microscope. Dilute drug stock (10 mg/mL in DMSO) 1:10 in DMEM medium, then transfer 5 μL to a TBST well for a final drug dilution of 1:200 and a final DMSO concentration of 1%. Control wells receive DMSO alone. Incubate in 5% CO2 at 37° C. for two hours.
2. Prepare EGF ligand: dilute stock EGF in DMEM so that upon transfer of 10 μL dilute EGF (1:12 dilution), 100 nM final concentration is attained.
4. After 120 minutes incubation with drug, add prepared […] ligand to cells, 10 μL per well, to a final concentration of 100 nM. Control wells receive DMEM alone. Incubate, shaking, at room temperature, for 5 minutes.
5. Remove drug, EGF, and DMEM. Wash cells twice with PBS. Transfer HNTG* to cells, 100 μL per well. Place on ice for 5 minutes. Meanwhile, remove blocking buffer from other ELISA plate and wash with TBST as described above.
6. With a pipette tip securely fitted to a micropipettor, scrape cells from plate and homogenize cell material by repeatedly aspirating and dispensing the HNTG* lysis buffer. Transfer lysate to a coated, blocked, and washed ELISA plate. Incubate shaking at room temperature for one hour.
7. Remove lysate and wash 4 times with TBST. Transfer freshly diluted anti-Ptyr antibody to ELISA plate at 100 μL per well. Incubate shaking at room temperature for 30 minutes in the presence of the anti-Ptyr antiserum (1:3000 dilution in TBST).
8. Remove the anti-Ptyr antibody and wash 4 times with TBST. Transfer the freshly diluted TAGO anti-rabbit IgG antibody to the ELISA plate at 100 μL per well. Incubate shaking at room temperature for 30 minutes (anti-rabbit IgG antibody: 1:3000 dilution in TBST).
9. Remove TAGO detection antibody and wash 4 times with TBST. Transfer freshly prepared ABTS/H2O2 solution to ELISA plate, 100 μL per well. Incubate shaking at room temperature for 20 minutes. (ABTS/H2O2 solution: 1.0 μL 30% H2O2 in 10 mL ABTS stock).
10. Stop reaction by adding 50 μL 5N H2SO4 (optional), and determine O.D. at 410 nm.
11. The maximal phosphotyrosine signal is determined by subtracting the value of the negative controls from the positive controls. The percent inhibition of phosphotyrosine content for extract-containing wells is then calculated, after subtraction of the negative controls.

EGFR [2] = target: T2, EGFR (Homo sapiens, UniProt P00533); experiment: Biochemical EGFR assay (ELISA); parameters: A431 cell lysate; endogenous in cells; host or cells: A431; conditions: Table 7, in vitro kinase activity, read-out: EGFr biochem IC50
T2 sequence (P00533 25-1210): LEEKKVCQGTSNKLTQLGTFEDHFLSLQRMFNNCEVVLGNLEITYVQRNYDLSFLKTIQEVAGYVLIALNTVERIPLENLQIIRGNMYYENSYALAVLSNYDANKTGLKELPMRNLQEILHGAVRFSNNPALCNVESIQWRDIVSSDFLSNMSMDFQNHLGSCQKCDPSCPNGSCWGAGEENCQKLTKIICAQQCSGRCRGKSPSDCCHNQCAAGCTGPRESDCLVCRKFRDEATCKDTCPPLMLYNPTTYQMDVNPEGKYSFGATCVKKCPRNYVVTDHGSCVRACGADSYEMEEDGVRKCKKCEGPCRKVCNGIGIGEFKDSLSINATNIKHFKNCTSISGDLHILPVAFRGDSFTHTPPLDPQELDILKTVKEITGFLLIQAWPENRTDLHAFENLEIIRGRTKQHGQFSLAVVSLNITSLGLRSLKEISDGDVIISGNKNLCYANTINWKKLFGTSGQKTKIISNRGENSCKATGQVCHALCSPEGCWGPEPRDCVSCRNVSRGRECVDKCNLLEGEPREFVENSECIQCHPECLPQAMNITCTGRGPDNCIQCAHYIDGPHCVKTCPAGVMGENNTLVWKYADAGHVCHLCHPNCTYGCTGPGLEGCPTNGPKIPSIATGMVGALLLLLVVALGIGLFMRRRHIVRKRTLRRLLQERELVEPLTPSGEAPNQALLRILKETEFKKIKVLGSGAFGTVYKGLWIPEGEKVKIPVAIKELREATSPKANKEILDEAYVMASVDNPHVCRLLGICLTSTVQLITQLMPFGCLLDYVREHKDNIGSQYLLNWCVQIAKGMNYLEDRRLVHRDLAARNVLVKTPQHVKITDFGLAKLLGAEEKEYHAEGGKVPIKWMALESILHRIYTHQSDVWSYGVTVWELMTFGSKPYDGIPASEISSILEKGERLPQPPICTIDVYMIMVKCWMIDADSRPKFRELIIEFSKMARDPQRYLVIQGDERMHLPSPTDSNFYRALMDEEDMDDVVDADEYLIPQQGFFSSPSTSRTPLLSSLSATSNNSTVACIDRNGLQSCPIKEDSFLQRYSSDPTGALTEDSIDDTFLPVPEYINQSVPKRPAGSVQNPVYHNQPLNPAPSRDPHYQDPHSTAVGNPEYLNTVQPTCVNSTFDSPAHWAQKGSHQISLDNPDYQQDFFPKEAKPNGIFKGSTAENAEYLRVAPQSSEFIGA
Description: This assay measures the in vitro kinase activity of EGFR using ELISA.
1. Coat Coming 96 well ELISA plates with 0.5 μg SUMOl in 100 μL PBS per well, store overnight at 4° C.
5. Dilute lysate in PBS (7 μg lysate/100 μL PBS).
6. Add 100 μL of diluted lysate to each well. Shake at room temperature for 60 min.
8. Add 120 μL TBS to ELISA plate containing captured EGFR.
9. Dilute test compound 1:10 in TBS in 96-well polypropylene plates (ie. 10 μL compound+90 μL TBS).
10. Add 13.5 μL diluted test compound to ELISA plate.
13. After 5 minutes, stop reaction by adding 16.5 μL of 200 mM EDTA (pH 8.0) to each well, shaking continuously. After the EDTA has been added, shake for 1 mm.
15. Add 100 μL anti-phosphotyrosine (1:3000 dilution in TBST) per well. Incubate 30-45 min. at room temperature, with shaking.
17. Add 100 μL Biosource Goat anti-rabbit IgG peroxidase conjugate (1:2000 dilution in TBST) to each well. Incubate 30 min. at room temperature, with shaking.
19. Add 100 μL of ABTS/H2O2 solution to each well.
22. Read assay on Dynatech MR7000 ELISA reader. Test Filter: 410 nM Reference Filter: 630 Nm.

A431 = A431 growth; assay type: cell-based; conditions: Homo sapiens, A-431; Table 7; A431 cells
Her2 [3] = target: T1, Her2; experiment: EGF-induced Her2-driven BrdU incorporation; assay type: cell-based; conditions: Table 6; 3T3 cells with EGF-R/Her2 chimeric receptor, EGF 2 nM; read-out: Her2-Driven BrdU Incorp. IC50
Description: (§1) The cellular/biologic assays described herein measure the amount of DNA made in response to activation of a test kinase, which is a general measure of a proliferative response. The general procedure for this assay is as follows: a compound is introduced to cells expressing the test kinase, either naturally or recombinantly, for some period of time after which, if the test kinase is a receptor, a ligand known to activate the receptor is added. After incubation at least overnight, a DNA labeling reagent such as Bromodeoxy-uridine (BrdU) or 3H-thymidine is added. The amount of labeled DNA is detected with either an anti-BrdU antibody or by measuring radioactivity and is compared to control cells not contacted with a test compound.
EGF-Induced Her2-Driven BrdU Incorporation
(8) 3T3 cell line engineered to express a chimeric receptor having the extra-cellular domain of EGF-R and the intra-cellular domain of Her2.
(1) Cells are seeded at 8000 cells/well in DMEM, 10% CS, 2 mM Gln in a 96-well plate. Cells are incubated overnight at 37° C. in 5% CO2.
(§2) (2) After 24 hours, the cells are washed with PBS, and then are serum starved in serum free medium (0% CS DMEM with 0.1% BSA) for 24 hours.
(§3) (3) On day 3, ligand (EGF=2 nM, prepared in DMEM with 0.1% BSA) and test compounds are added to the cells simultaneously. The negative control wells receive serum free DMEM with 0.1% BSA only; the positive control cells receive the ligand (EGF) but no test compound. Test compounds are prepared in serum free DMEM with ligand in a 96 well plate, and serially diluted for 7 test concentrations.
(4) After 20 hours of ligand activation, diluted BrdU labeling reagent (1:100 in DMEM, 0.1% BSA) is added and the cells are incubated with BrdU (final concentration=[…]) for 1.5 hours.
(§4) (10) The absorbance of the samples are measured at 410 nm (in “dual wavelength” mode with a filter reading at 490 nm, as a reference wavelength) on a Dynatech ELISA plate reader.

EGFR [4] = target: T2, EGFR; experiment: EGF-induced BrdU incorporation assay; assay type: cell-based; parameters: expressed in transfected cells; host or cells: 3T3; conditions: Table 6; 3T3 cells expressing human EGF-R, EGF 2 nM; read-out: EGF-Driven BrdU Incorp. IC50
Description: as §1
EGF-Induced BrdU Incorporation Assay
(8) 3T3 cell line genetically engineered to express human EGF-R.
(1) Cells are seeded at 8000 cells/well in 10% CS, 2 mM Gin in DMEM, in a 96 well plate. Cells are incubated overnight at 37° C. in 5% CO2.
as §2
as §3, with “(EGF, 2” for “(EGF=2”, “0.1%/BSA)” for “0.1% BSA)”
(§5) (4) After 20 hours of ligand activation, diluted BrdU labeling reagent (1: 100 in DMEM, 0.1% BSA) is added and the cells are incubated with BrdU (final concentration=10 μM) for 1.5 hours.
as §4

PDGFR = PDGFR (Homo sapiens, UniProt P09619); experiment: PDGF-induced BrdU incorporation assay; assay type: cell-based; parameters: expressed in transfected cells; host or cells: 3T3; conditions: Table 6; 3T3 cells expressing human PDGF-R, PDGF 3.8 nM; read-out: PDGF-Driven BrdU Incorp. IC50
PDGFR, sequence (P09619 33-1106): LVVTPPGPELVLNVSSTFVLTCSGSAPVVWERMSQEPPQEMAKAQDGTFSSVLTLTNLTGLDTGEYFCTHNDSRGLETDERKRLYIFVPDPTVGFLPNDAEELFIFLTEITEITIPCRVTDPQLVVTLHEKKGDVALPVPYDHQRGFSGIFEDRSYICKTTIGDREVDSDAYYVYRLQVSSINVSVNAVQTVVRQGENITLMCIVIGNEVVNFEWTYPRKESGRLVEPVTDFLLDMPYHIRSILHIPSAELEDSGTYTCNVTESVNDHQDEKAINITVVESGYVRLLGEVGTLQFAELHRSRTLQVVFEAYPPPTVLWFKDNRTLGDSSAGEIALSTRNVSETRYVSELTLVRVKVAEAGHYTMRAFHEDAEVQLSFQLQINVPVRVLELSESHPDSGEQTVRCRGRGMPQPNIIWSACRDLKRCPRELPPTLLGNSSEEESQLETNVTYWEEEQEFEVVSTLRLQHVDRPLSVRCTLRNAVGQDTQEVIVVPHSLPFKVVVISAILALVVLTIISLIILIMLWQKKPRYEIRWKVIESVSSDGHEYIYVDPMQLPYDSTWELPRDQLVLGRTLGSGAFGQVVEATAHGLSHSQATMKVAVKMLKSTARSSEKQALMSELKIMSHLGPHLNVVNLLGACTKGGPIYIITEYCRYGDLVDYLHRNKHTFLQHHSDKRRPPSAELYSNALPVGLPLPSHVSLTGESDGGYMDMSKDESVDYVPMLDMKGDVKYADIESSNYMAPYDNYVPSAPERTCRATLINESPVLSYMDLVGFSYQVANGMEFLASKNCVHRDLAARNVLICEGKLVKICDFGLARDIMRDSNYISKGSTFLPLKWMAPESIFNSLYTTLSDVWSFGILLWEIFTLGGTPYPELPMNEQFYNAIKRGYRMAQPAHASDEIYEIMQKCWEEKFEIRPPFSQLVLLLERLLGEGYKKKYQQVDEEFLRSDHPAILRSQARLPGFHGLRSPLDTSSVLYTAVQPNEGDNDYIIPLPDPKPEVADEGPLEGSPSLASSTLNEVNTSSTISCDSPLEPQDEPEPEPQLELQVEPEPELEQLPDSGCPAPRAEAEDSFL
Description: as §1
PDGF-Induced BrdU Incorporation Assay
(8) 3T3 cell line genetically engineered to express human PDGF-R.
(1) Cells are seeded at 8000 cells/well in DMEM, 10% CS, 2 mM Gln in a 96 well plate. Cells are incubated overnight at 37° C. in 5% CO2.
as §2
as §3, with “(PDGF, 3.8” for “(EGF=2”, “(PDGF)” for “(EGF)”
as §5, §4

Structure (SMILES) | IC50 (SKOV3) | IC50 (Her2 [1]) | IC50 (EGFR [2]) | IC50 (A431) | IC50 (Her2 [3]) | IC50 (EGFR [4]) | IC50 (PDGFR)
CC(C)(C)NC(=O)OCCc1cccc2c1CC(=O)N2 [IN-012, tert-Butyl-carbamic acid 2-(2-oxo-2,3-dihydro-1H-indol-4-yl)-ethyl ester] | > 50 µM | > 100 µM | > 100 µM | > 50 µM |  |  | 
O=C1Cc2c(CCOC(=O)Nc3ccccc3)cccc2N1 [IN-011, Phenyl-carbamic acid 2-(2-oxo-2,3-dihydro-1H-indol-4-yl)-ethyl ester] | > 50 µM | > 100 µM | > 100 µM | > 50 µM |  |  | 
O=C1Cc2c(CCOC(=O)NS(=O)(=O)c3ccccc3)cccc2N1 [IN-014, Benzene sulfonyl-carbamic acid 2-(2-oxo-2,3-dihydro-1H-indol-4-yl)-ethyl ester] | > 50 µM | > 100 µM | > 100 µM | > 50 µM |  |  | 
O=C1Cc2c(CCOC(=O)NC3CCCCC3)cccc2N1 [IN-013, Cyclohexyl-carbamic acid 2-(2-oxo-2,3-dihydro-1H-indol-4-yl)-ethyl ester] | > 50 µM | > 100 µM | > 100 µM | > 50 µM |  |  | 
O=C1Cc2c(CCOC(=S)Nc3ccccc3)cccc2N1 [IN-010, Phenyl-thiocarbamic acid O-[2-(2-oxo-2,3-dihydro-1H-indol-4-yl)-ethyl]ester] | > 25 µM | > 100 µM | > 100 µM | > 25 µM |  |  | 
COc1ccc(/C(=C2/C(=O)Nc3ccccc32)c2[nH]c(C)cc2C)cc1 [DAI-I, 3-[(3,5-Dimethyl-1H-pyrrol-2-yl)-(4-methoxy-phenyl)-methylene]-1,3-dihydro-indol-2-one] |  |  |  |  | 46.9 µM | > 50 µM | 0.77 µM
O=C1Cc2c(CCOC(=O)Nc3ccccc3-c3ccccc3)cccc2N1 [IN-015, Biphenyl-2-yl-carbamic acid 2-(2-oxo-2,3-dihydro-1H-indol-4-yl)-ethyl ester] | 20.5 µM | > 100 µM | > 100 µM | 21 µM |  |  | 
CCNC(=O)OCCc1cccc2c1CC(=O)N2 [IN-016, Ethyl-carbamic acid 2-(2-oxo-2,3-dihydro-1H-indol-4-yl)-ethyl ester] | > 50 µM | > 100 µM | > 100 µM | > 50 µM |  |  | 
CC(C)c1ccc(OCCc2cccc3c2CC(=O)N3)cc1 [IN-020, 4-[2-(4-Isopropyl-phenoxy)-ethyl]-1,3-dihydro-indol-2-one] | > 50 µM | > 100 µM | > 100 µM | 15.2 µM |  |  | 
COc1ccc(OCCc2cccc3c2CC(=O)N3)cc1 [IN-017, 4-[2-(4-Methoxy-phenoxy)-ethyl]-1,3-dihydro-indol-2-one] | > 50 µM | > 100 µM | > 100 µM |  |  |  | 
COc1ccc(/C(=C2/C(=O)Nc3ccccc32)c2[nH]c(C)cc2C)cc1OC [DAI-II, 3-[(3,4-dimethoxy-phenyl)-(3,5-dimethyl-1H-pyrrol-2-yl)-methylene]-1,3-dihydro-indol-2-one] |  |  |  |  | 30.2 µM | 38.3 µM | 0.26 µM
